Reference: patent US20230119833A1, “NMR METHODS FOR CHARACTERIZING IRON SUCROSE” (Amphastar Pharmaceuticals, Inc., priority 2020, published 2023)

Test: 13C NMR peak width at half-height (PWHH) and relative PWHH of sucrose peaks, Example 1
Format: physicochemical
Conditions: for PWHH, three lots mean, Average: average of the twelve 13C peaks
Description: In Example 1, ^13C NMR was performed on three (3) samples (e.g 3 lots) of a comparator iron sucrose drug product having an equivalent concentration of 20 mg base/mL, and three (3) samples (e.g 3 lots) of a tested iron sucrose drug product having an equivalent concentration of 20 mg base/mL were analyzed by ^13C NMR in Example 1. The comparator product was Venofer® having an equivalent concentration of 20 mg base/mL. In addition, ^13C NMR was also performed on 3 samples (e.g. 3 lots) of free sucrose sample. Free sucrose is sucrose only with no iron.
The average PWHH of the 3 lots of the comparator iron sucrose drug product is identified as w in Tables 1 and 2. The average PWHH of the 3 lots of the tested iron sucrose drug productis identified as w in Tables 1 and 2. The average PWHH of the 3 lots of sucrose only sample is identified as w0 in Tables 1 and 2.
In addition to PWHH, a RPWHH is another characterization method disclosed herein. […] As provided in Table 1, the RPWHH averaged among the twelve (12) C peaks and the 3 lots for: (i) w1/wo is 8.5 f 1.0, and (ii) w2/wo is 7.9±1.1.

- PWHH, three lots mean (13C Peak No. 1, 106.0 ppm, Fructose, Carbon Atom No. 8): 10.6 ppb
- PWHH, three lots mean (13C Peak No. 2, 95.0 ppm, Glucose, Carbon Atom No. 1): 14.7 ppb
- PWHH, three lots mean (13C Peak No. 3, 84.0 ppm, Fructose, Carbon Atom No. 11): 13.4 ppb
- PWHH, three lots mean (13C Peak No. 4, 79.0 ppm, Fructose, Carbon Atom No. 9): 16.3 ppb
- PWHH, three lots mean (13C Peak No. 5, 76.0 ppm, Fructose, Carbon Atom No. 10): 15.8 ppb
- PWHH, three lots mean (13C Peak No. 6, 75.4 ppm, Glucose, Carbon Atom No. 3): 14.3 ppb
- PWHH, three lots mean (13C Peak No. 7, 75.2 ppm, Glucose, Carbon Atom No. 5): 14.9 ppb
- PWHH, three lots mean (13C Peak No. 8, 73.9 ppm, Glucose, Carbon Atom No. 2): 15.7 ppb
- PWHH, three lots mean (13C Peak No. 9, 72.0 ppm, Glucose, Carbon Atom No. 4): 13.7 ppb
- PWHH, three lots mean (13C Peak No. 10, 65.2 ppm, Fructose, Carbon Atom No. 7): 16.2 ppb
- PWHH, three lots mean (13C Peak No. 11, 64.1 ppm, Fructose, Carbon Atom No. 12): 17.6 ppb
- PWHH, three lots mean (13C Peak No. 12, 62.9 ppm, Glucose, Carbon Atom No. 6): 17.2 ppb
- PWHH, three lots mean, Average: 15.0 ppb
- PWHH, three lots mean, Average (listed as w0): 15±2 ppb
Structure (SMILES): OC[C@H]1O[C@@](CO)(O[C@H]2O[C@H](CO)[C@@H](O)[C@H](O)[C@H]2O)[C@@H](O)[C@@H]1O [Sucrose Only, sucrose]
